Assay results from PMC9951290, “Comprehensive Structure–Activity Relationship Studies of Cepafungin Enabled by Biocatalytic C–H Oxidations” (ACS Central Science, 2023).

Legend:
20S proteasome subunits = test: Competitive in situ LC-MS/MS pull-down with alkyne probe S10 and 1 (Figure S1, Table S3); format: cell-based, human; details: 100 nM 1 versus 10 μM S10, RPMI 8226; targets: 20S proteasome subunits β5, β2i, α5, β1, β2
Protocol: To determine the targets of cepafungin I in human MM cells through chemoproteomics, a clickable analogue (S10) was designed with alkyne functionality distal to the reactive macrocycle (i.e., at the end of the fatty acid chain). The synthesis of S10 proceeded in a similar fashion as in Scheme 2B except with the tail fragment built from initial alkyne substitution of 6-bromo-1-hexanol. […] To identify these targets, a competitive in situ LC-MS/MS-based pull-down experiment was performed using alkyne probe S10 and 1. Following live cell treatment with just the probe or the probe together with the natural product, alkyne conjugation to biotin-azide and pull-down with streptavidin beads, the probe analogue enriched 764 proteins from RPMI 8226. […] These targets were identified as the 20S proteasome subunits β5, β2i, α5, β1, and β2, highlighting cepafungin’s exceptional selectivity for the proteasome in MM cells (Figure S1 and Table S3). […] The “i” suffix here denotes subunits of the immunoproteasome, which is produced by most cells exposed to oxidative stress or proinflammatory cytokines and also by immune cells at especially high baseline levels.[37] […]
fluorescence was read at A360ex/A460em. […]
in DMSO) or DMSO and cultured for 48 hours. Toxicity was determined using the WST-1 assay (Roche) according to the protocol of the manufacturer. […]

proteasome subunit β5 = molecular target: T1, proteasome subunit β5 (Homo sapiens, UniProt P28074); details: in situ in RPMI 8226 cells; preliminary analogue series, Figure 2; cited from earlier work
T1 construct: Following incubation of the compounds in cell culture for 6 h, cells were lysed; endogenous in cells; host or cells: RPMI 8226 (human multiple myeloma)

SMILES: CC(C)CCCCCC=CC=CC(=O)NC(C(=O)NC1CC(O)CCNC(=O)C=CC(C)NC1=O)C(C)O (centres unmarked) [compound 1, cepafungin I]
- number of enriched proteins competed >50% (20S proteasome subunits): 5 proteins
- IC50 (proteasome subunit β5): 16 ± 1 nM
